# According to PubChem BioAssay (NCI):
#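 Exposure lasted 48 hours, with cells grown in 96-well plates and compounds tested at five concentrations. TGI denotes the concentration required for complete inhibition of growth.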
# Key:
# Experiment in all cases: growth of human tumour cells (NCI), 48 h
# 786-0 renal = test system: 786-0 renal
# A498 renal = test system: A498 renal
# ACHN renal = test system: ACHN renal
# CAKI-1 renal = test system: CAKI-1 renal
# CCRF-CEM leukemia = test system: CCRF-CEM leukemia
# COLO 205 colon = test system: COLO 205 colon
# DU-145 prostate = test system: DU-145 prostate
# EKVX NSCLC = test system: EKVX NSCLC
# HCC-2998 colon = test system: HCC-2998 colon
# HCT-15 colon = test system: HCT-15 colon
# HL-60(TB) leukemia = test system: HL-60(TB) leukemia
# HOP-62 NSCLC = test system: HOP-62 NSCLC
# HOP-92 NSCLC = test system: HOP-92 NSCLC
# HS 578T breast = test system: HS 578T breast
# HT29 colon = test system: HT29 colon
# IGROV1 ovarian = test system: IGROV1 ovarian
# K-562 leukemia = test system: K-562 leukemia
# KM12 colon = test system: KM12 colon
# LOX IMVI melanoma = test system: LOX IMVI melanoma
# M14 melanoma = test system: M14 melanoma
# MALME-3M melanoma = test system: MALME-3M melanoma
# MCF7 breast = test system: MCF7 breast
# MDA-MB-231 breast = test system: MDA-MB-231 breast
# MDA-MB-435 = test system: MDA-MB-435
# MDA-N = test system: MDA-N
# MOLT-4 leukemia = test system: MOLT-4 leukemia
# NCI-H226 lung = test system: NCI-H226 lung
# NCI-H23 lung = test system: NCI-H23 lung
# NCI-H460 lung = test system: NCI-H460 lung
# NCI-H522 lung = test system: NCI-H522 lung
# NCI/ADR-RES ovarian = test system: NCI/ADR-RES ovarian
# OVCAR-3 ovarian = test system: OVCAR-3 ovarian
# OVCAR-4 ovarian = test system: OVCAR-4 ovarian
# OVCAR-5 ovarian = test system: OVCAR-5 ovarian
# OVCAR-8 ovarian = test system: OVCAR-8 ovarian
# PC-3 prostate = test system: PC-3 prostate
# RPMI-8226 leukemia = test system: RPMI-8226 leukemia
# RXF 393 renal = test system: RXF 393 renal
# SF-268 CNS = test system: SF-268 CNS
# SF-295 CNS = test system: SF-295 CNS
# SF-539 CNS = test system: SF-539 CNS
# SK-MEL-2 melanoma = test system: SK-MEL-2 melanoma
# SK-MEL-28 melanoma = test system: SK-MEL-28 melanoma
# SK-MEL-5 melanoma = test system: SK-MEL-5 melanoma
# SK-OV-3 ovarian = test system: SK-OV-3 ovarian
# SN12C renal = test system: SN12C renal
# SNB-19 CNS = test system: SNB-19 CNS
# SNB-75 CNS = test system: SNB-75 CNS
# SR leukemia = test system: SR leukemia
# SW-620 colon = test system: SW-620 colon
# T-47D breast = test system: T-47D breast
# TK-10 renal = test system: TK-10 renal
# U251 CNS = test system: U251 CNS
# UACC-257 melanoma = test system: UACC-257 melanoma
# UO-31 renal = test system: UO-31 renal
# A549 NSCLC = test system: A549 NSCLC
# BT-549 breast = test system: BT-549 breast
# HCT-116 colon = test system: HCT-116 colon
# UACC-62 melanoma = test system: UACC-62 melanoma
compound,measurement,setting,value
Cn1c2c(c3ccccc31)CCN1C(=O)CCC21 (centres undefined),TGI,786-0 renal,> 10 µM
same,TGI,A498 renal,> 10 µM
same,TGI,ACHN renal,> 10 µM
same,TGI,CAKI-1 renal,> 10 µM
same,TGI,CCRF-CEM leukemia,> 10 µM
same,TGI,COLO 205 colon,> 10 µM
same,TGI,DU-145 prostate,> 10 µM
same,TGI,EKVX NSCLC,> 10 µM
same,TGI,HCC-2998 colon,> 10 µM
same,TGI,HCT-15 colon,> 10 µM
same,TGI,HL-60(TB) leukemia,> 10 µM
same,TGI,HOP-62 NSCLC,> 10 µM
same,TGI,HOP-92 NSCLC,> 10 µM
same,TGI,HS 578T breast,> 10 µM
same,TGI,HT29 colon,> 10 µM
same,TGI,IGROV1 ovarian,> 10 µM
same,TGI,K-562 leukemia,> 10 µM
same,TGI,KM12 colon,> 10 µM
same,TGI,LOX IMVI melanoma,> 10 µM
same,TGI,M14 melanoma,> 10 µM
same,TGI,MALME-3M melanoma,> 10 µM
same,TGI,MCF7 breast,> 10 µM
same,TGI,MDA-MB-231 breast,> 10 µM
same,TGI,MDA-MB-435,> 10 µM
same,TGI,MDA-N,> 10 µM
same,TGI,MOLT-4 leukemia,> 10 µM
same,TGI,NCI-H226 lung,> 10 µM
same,TGI,NCI-H23 lung,> 10 µM
same,TGI,NCI-H460 lung,> 10 µM
same,TGI,NCI-H522 lung,> 10 µM
same,TGI,NCI/ADR-RES ovarian,> 10 µM
same,TGI,OVCAR-3 ovarian,> 10 µM
same,TGI,OVCAR-4 ovarian,> 10 µM
same,TGI,OVCAR-5 ovarian,> 10 µM
same,TGI,OVCAR-8 ovarian,> 10 µM
same,TGI,PC-3 prostate,> 10 µM
same,TGI,RPMI-8226 leukemia,> 10 µM
same,TGI,RXF 393 renal,> 10 µM
same,TGI,SF-268 CNS,> 10 µM
same,TGI,SF-295 CNS,> 10 µM
same,TGI,SF-539 CNS,> 10 µM
same,TGI,SK-MEL-2 melanoma,> 10 µM
same,TGI,SK-MEL-28 melanoma,> 10 µM
same,TGI,SK-MEL-5 melanoma,> 10 µM
same,TGI,SK-OV-3 ovarian,> 10 µM
same,TGI,SN12C renal,> 10 µM
same,TGI,SNB-19 CNS,> 10 µM
same,TGI,SNB-75 CNS,> 10 µM
same,TGI,SR leukemia,> 10 µM
same,TGI,SW-620 colon,> 10 µM
same,TGI,T-47D breast,> 10 µM
same,TGI,TK-10 renal,> 10 µM
same,TGI,U251 CNS,> 10 µM
same,TGI,UACC-257 melanoma,> 10 µM
same,TGI,UO-31 renal,> 10 µM
COC(C)(C)/C=C/c1[nH]c2ccccc2c1CC(=O)NCCc1cn(C(c2ccccc2)(c2ccccc2)c2ccccc2)cn1,TGI,786-0 renal,17.1 µM
same,TGI,A498 renal,12.9 µM
same,TGI,A549 NSCLC,> 100 µM
same,TGI,ACHN renal,> 100 µM
same,TGI,BT-549 breast,> 75.7 µM
same,TGI,CAKI-1 renal,> 100 µM
same,TGI,CCRF-CEM leukemia,> 100 µM
same,TGI,COLO 205 colon,3.85 µM
same,TGI,DU-145 prostate,> 89.3 µM
same,TGI,EKVX NSCLC,> 100 µM
same,TGI,HCC-2998 colon,2.95 µM
same,TGI,HCT-116 colon,14.8 µM
same,TGI,HCT-15 colon,> 100 µM
same,TGI,HL-60(TB) leukemia,8.88 µM
same,TGI,HOP-62 NSCLC,34.4 µM
same,TGI,HOP-92 NSCLC,> 28.3 µM
same,TGI,HS 578T breast,60.2 µM
same,TGI,HT29 colon,> 21.5 µM
same,TGI,IGROV1 ovarian,> 100 µM
same,TGI,K-562 leukemia,> 36 µM
same,TGI,KM12 colon,> 87.3 µM
same,TGI,LOX IMVI melanoma,> 51.3 µM
same,TGI,M14 melanoma,17.3 µM
same,TGI,MALME-3M melanoma,11.7 µM
same,TGI,MCF7 breast,15.5 µM
same,TGI,MDA-MB-231 breast,15 µM
same,TGI,MDA-MB-435,22.3 µM
same,TGI,MDA-N,19.9 µM
same,TGI,MOLT-4 leukemia,6.21 µM
same,TGI,NCI-H226 lung,10.9 µM
same,TGI,NCI-H23 lung,22.9 µM
same,TGI,NCI-H460 lung,> 23.5 µM
same,TGI,NCI-H522 lung,14.3 µM
same,TGI,NCI/ADR-RES ovarian,> 100 µM
same,TGI,OVCAR-3 ovarian,> 29.2 µM
same,TGI,OVCAR-4 ovarian,> 100 µM
same,TGI,OVCAR-5 ovarian,> 30.5 µM
same,TGI,OVCAR-8 ovarian,> 100 µM
same,TGI,PC-3 prostate,10.6 µM
same,TGI,RPMI-8226 leukemia,6.77 µM
same,TGI,RXF 393 renal,> 100 µM
same,TGI,SF-268 CNS,> 100 µM
same,TGI,SF-295 CNS,> 31.3 µM
same,TGI,SF-539 CNS,14.1 µM
same,TGI,SK-MEL-2 melanoma,6.45 µM
same,TGI,SK-MEL-28 melanoma,29.8 µM
same,TGI,SK-MEL-5 melanoma,7.36 µM
same,TGI,SK-OV-3 ovarian,> 34.9 µM
same,TGI,SN12C renal,19.2 µM
same,TGI,SNB-19 CNS,> 100 µM
same,TGI,SR leukemia,5.8 µM
same,TGI,SW-620 colon,> 100 µM
same,TGI,T-47D breast,> 21.9 µM
same,TGI,TK-10 renal,> 40.5 µM
same,TGI,U251 CNS,16.5 µM
same,TGI,UACC-257 melanoma,24.9 µM
same,TGI,UACC-62 melanoma,21.3 µM
same,TGI,UO-31 renal,61.8 µM
CC1(C)CCCC(C)(C2CCC3(C)C2C(O)CC2C4(C)CCC(O)C(C)(C)C4CCC23C)O1 (centres undefined),TGI,786-0 renal,> 100 µM
same,TGI,A498 renal,> 100 µM
same,TGI,A549 NSCLC,> 100 µM
same,TGI,ACHN renal,> 100 µM
same,TGI,BT-549 breast,> 100 µM
same,TGI,CAKI-1 renal,> 100 µM
same,TGI,CCRF-CEM leukemia,> 100 µM
same,TGI,COLO 205 colon,> 100 µM
same,TGI,DU-145 prostate,> 100 µM
same,TGI,EKVX NSCLC,> 100 µM
same,TGI,HCC-2998 colon,> 100 µM
same,TGI,HCT-116 colon,> 100 µM
same,TGI,HCT-15 colon,> 100 µM
same,TGI,HL-60(TB) leukemia,> 100 µM
same,TGI,HOP-92 NSCLC,> 100 µM
same,TGI,HS 578T breast,89.1 µM
same,TGI,HT29 colon,> 100 µM
same,TGI,IGROV1 ovarian,> 100 µM
same,TGI,K-562 leukemia,> 100 µM
same,TGI,KM12 colon,> 100 µM
same,TGI,LOX IMVI melanoma,> 100 µM
same,TGI,M14 melanoma,> 100 µM
same,TGI,MALME-3M melanoma,> 100 µM
same,TGI,MCF7 breast,> 100 µM
same,TGI,MDA-MB-231 breast,> 100 µM
same,TGI,MDA-MB-435,> 100 µM
same,TGI,MDA-N,> 100 µM
same,TGI,MOLT-4 leukemia,> 100 µM
same,TGI,NCI-H226 lung,> 100 µM
same,TGI,NCI-H23 lung,> 100 µM
same,TGI,NCI-H460 lung,> 100 µM
same,TGI,NCI-H522 lung,> 100 µM
same,TGI,NCI/ADR-RES ovarian,> 100 µM
same,TGI,OVCAR-4 ovarian,> 100 µM
same,TGI,OVCAR-5 ovarian,> 100 µM
same,TGI,OVCAR-8 ovarian,> 100 µM
same,TGI,PC-3 prostate,> 100 µM
same,TGI,RXF 393 renal,30.9 µM
same,TGI,SF-268 CNS,> 100 µM
same,TGI,SF-295 CNS,> 100 µM
same,TGI,SF-539 CNS,> 100 µM
same,TGI,SK-MEL-2 melanoma,> 100 µM
same,TGI,SK-MEL-28 melanoma,> 100 µM
same,TGI,SK-MEL-5 melanoma,> 100 µM
same,TGI,SK-OV-3 ovarian,> 100 µM
same,TGI,SN12C renal,> 100 µM
same,TGI,SNB-19 CNS,> 100 µM
same,TGI,SNB-75 CNS,> 100 µM
same,TGI,SR leukemia,> 100 µM
same,TGI,SW-620 colon,> 100 µM
same,TGI,T-47D breast,> 100 µM
same,TGI,TK-10 renal,> 100 µM
same,TGI,U251 CNS,> 100 µM
same,TGI,UACC-257 melanoma,> 100 µM
same,TGI,UACC-62 melanoma,> 100 µM
same,TGI,UO-31 renal,> 100 µM
